Experimental data from patent publication US20220030850A1, “CRYOPRESERVATIVE COMPOSITIONS AND METHODS” (REGENTS OF THE UNIVERSITY OF MINNESOTA, priority 2015, published 2022).

Assays:
[1] = 10% DMSO solution; cited from earlier work
[2] = test system: H9-MSCs; assay: Gene expression by qRT-PCR immediately post-thaw; type: cell-based, human; conditions: GAPDH internal control, FIG. 23
Procedure: Certain genes within select gene categories were analyzed using qRT-PCR. H9-MSCs subjected to different freezing approaches were assayed immediately post-thaw for the expression of genes related to trophic factor secretion such as HGF, VEGF, FGF2, CXCL12 (SDF-1α), mesodermal lineage markers TWIST1, TWIST2 (DERMO1), MSX2, the anti-apoptotic marker BCL2, surface markers for cell adhesion such as CD106 and CD54, the osmotic regulator marker GAL-1, and stress-response markers such as EGR1 and NFE2L2 (NRF2).
Pellets of thawed samples described above were resuspended in QIAZOL lysis agent (Qiagen, Hilden, Germany) for further RNA isolation and processing. […] The purified RNA was quantified using a NANODROP 2000 (Therm Fisher Scientific, Waltham, Mass.) device to determine concentration.
For qRT-PCR studies, 800 ng of RNA was used for reverse transcription to make cDNA using SuperScript III First-Strand Synthesis System (Thermo Fisher Scientific, Waltham, Mass.). cDNA was diluted to a concentration of 4 ng/μl and real-time qPCR was performed with 10 ng cDNA per 10 μl reaction with QuantiTect SYBR Green PCR Kit (Qiagen, Hilden, Germany) on CFX384 Real-Time PCR detection system (Bio-Rad Laboratories, Inc., Hercules, Calif.). […] were analyzed using the comparative CT method (Schmittgen et al., 2008. Nat Protoc 3:1101-1108) with GAPDH as an internal control gene.

[3] = test system: MSCs; assay: High throughput factorial screening with Linear Mixed Effects statistical analysis of recovery; type: cell-based, human; conditions: statistical analysis of sugar and cooling rate
Procedure: In another evaluation, cells were combined with factorial combinations of the components listed in Table 5, using one component from each category. Plates including cells and solutions were frozen at cooling rates of 1′C/min, 3′C/min, 5′C/min, or 10′C/min.
Recovery was calculated by dividing the number of live cells post thaw—calculated using a control curve correlating calcein-acetoxymethyl (AM) fluorescence to cell count—by the number of live cells seeded pre-freeze (AO/PI counts taken prior to freezing). Recovery was normalized by dividing by the DMSO recovery on each plate, then multiplying by a standard DMSO recovery for each cooling rate. This normalized recovery was used to compare samples between different plates and different cooling rates.
Statistical analysis of the data was performed using a Linear Effects Model. The model associated with best fit was determined using Bayesian Information Criteria. […] The ten best combinations for Jurkats are summarized in Table 6 below, while the eight best combinations for MSCs are summarized in Table 7.
To assess the importance of the four explanatory variables of interest (Sugar, Rate, Additive and Alcohol), without neglecting the variation between each batch and between each plate within the batches, we sought to find the best Linear Mixed Effects (LME) model. With yi the i'th outcome of the response, Xi the corresponding values of the covariates, the LME model is defined as
To select the most fitting model, we performed backward elimination based on the Bayesian Information Criterion (BIC) starting with a model that includes all variables and second order interactions. Furthermore, we included two random variables, one to catch the effect of the batch, and one to catch the effect of each plate within the batch—i.e., the full model is: […]

[4] = biological target: lysozyme (Gallus gallus, UniProt P00698); assay: Differential scanning calorimetry, denaturation temperature of lysozyme in osmolyte solution; type: physicochemical; conditions: 1 mg/ml lysozyme in 20 mM HEPES buffer; single osmolytes 600 mM; heated at 1° C./min; pH 7.3
Procedure: Lysozyme powder was dissolved into each solution reaching final concentration of 100 mg/ml and then refrigerated. Lysozyme in DPBS solution was used as control. For DSC measurements, experiment solution was made by dissolving osmolyte into 20 mM HEPES buffer and the concentration of osmolyte in each solution remained same as in DPBS solution. Lysozyme powder was dissolved into each solution reaching final concentration of 1 mg/ml and kept refrigerated. Lysozyme in HEPES buffer was used as control. The pH of solutions was 7.3 measured by Beckman 350 meter. Differential scanning calorimetry was performed on a differential scanning calorimeter (Q1000, TA Instruments, New Castle, Del.). Osmolyte solutions containing lysozyme were heated in order to determine the denaturation temperature of lysozyme. Experimental solutions were heated from room temperature to 90° C. at 1° C./min. Specific heat, Cp, was calculated from the heat flow data assuming Cp as a function of temperature were analyzed using OriginPro software (OriginLab Corp., Northampton, Mass.) to subtract curve baseline. The midpoint temperature, Tm, was obtained as the temperature corresponding to the maximum specific heat value from the baseline and the denaturation temperature was assumed to be Tm^32.

Sequence of lysozyme (P00698 19-147): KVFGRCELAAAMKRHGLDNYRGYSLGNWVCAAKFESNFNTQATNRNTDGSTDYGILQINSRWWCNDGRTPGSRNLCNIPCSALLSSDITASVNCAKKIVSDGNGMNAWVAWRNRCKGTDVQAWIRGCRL

Denaturation temperature Tm of lysozyme [4] [°C]	SMILES	osmolarity [1] [mOsm]	CXCL12 expression [2]	TWIST2 expression [2]	cooling rate at which cells performed better with the sugar [3]
–	C[S+](C)[O-] [DMSO, dimethyl sulfoxide]	~1400	notable change	elevated	–
84.4	OC[C@H]1O[C@@](CO)(O[C@H]2O[C@H](CO)[C@@H](O)[C@H](O)[C@H]2O)[C@@H](O)[C@@H]1O [Sucrose]	–	–	–	3 °C and 5° C./min
